Assay results reported in patent EP4434982A1, “(S)-2-(2-METHYLAZETIDIN-1-YL)PYRIMIDINE DERIVATIVE AND PHARMACEUTICAL COMPOSITION COMPRISING SAME” (LG Chem, Ltd., priority 2021, dated 2023).

What follows are molecules tested against T1, Ketohexokinase (KHK) (Homo sapiens, UniProt P50053) (assay: measurement of activity in vitro of ketohexokinase inhibitor (Transcreener ADP2 TR-FRET Red Assay, ADP produced)). Conditions: KHK pre-reacted with inhibitor 30 minutes, then substrate (ATP, fructose) 15 minutes; Ki by Morrison equation.
T1 construct: His tag; made in house; host or cells: E. coli
T1 sequence (P50053 1-298): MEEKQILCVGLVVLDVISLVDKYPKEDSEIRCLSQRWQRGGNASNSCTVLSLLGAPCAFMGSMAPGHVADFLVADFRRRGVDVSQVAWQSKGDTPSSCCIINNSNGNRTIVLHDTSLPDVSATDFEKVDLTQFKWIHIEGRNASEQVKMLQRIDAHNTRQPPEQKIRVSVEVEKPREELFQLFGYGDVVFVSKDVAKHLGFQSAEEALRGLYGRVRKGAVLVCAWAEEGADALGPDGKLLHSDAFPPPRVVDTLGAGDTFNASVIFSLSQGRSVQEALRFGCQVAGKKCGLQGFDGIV
Assay type: biochemical
Description: Ketohexokinase (KHK) was expressed in E. Coli and purified using His tag. In order to measure the activity of the purified KHK, Transcreener ADP2 TR-FRET Red Assay kit of BellBrook Labs was used. A method of measuring the amount of ADP produced was used using TR-FRET after reacting a solution including a suitable concentration of KHK protein and ATP, and fructose for 15 minutes. In order to see the activity of a ketohexokinase (KHK) inhibitor, ketohexokinase (KHK) and a suitable concentration of an inhibitor were reacted first for 30 minutes, and then, reacted with a solution including the substrate of ketohexokinase (KHK) for 15 minutes. Then, reaction for TR-FRET was performed for 1 hour, and fluorescence was measured using Envision equipment of PerkinElmer. According to the optimization procedure of TR-FRET published by BellBrook Lab, the set value of the Envision equipment was determined.
The result values by concentration of the ketohexokinase (KHK) inhibitor were determined as the ratio of a wavelength of 665 nm and a wavelength of 615nm. The 665/615 ratio value by concentration of each inhibitor was converted to ADP concentration based on ADP standard curve, and inhibition activity Ki value was obtained using Morrison equation by statistical software (Prizm). Meanwhile, the Ki value is a value representing the binding affinity of the inhibitor and an enzyme, and a lower value means better inhibitory activity.

Ki [nM] | Structure (SMILES)
≤ 10 | C[C@H]1CCN1c1nc(N2CCN(CC(=O)N3CCNCC3)CC2)c2c(n1)C(F)(F)CC2 [Example 13, (S)-2-4-(7,7-difluoro-2-(2-methylazetidin-1-yl)-6,7-dihydro-5H-cyclopenta[d]pyrimidin-1-yl)-1-(piperazin-1-yl)ethan-1-one]
≤ 10 | C[C@H]1CCN1c1nc(N2C[C@@H]3[C@@H](CC(=O)N4CCNCC4)[C@@H]3C2)c2c(n1)C(F)(F)CC2 [Example 18, 2-((1R,5S,6R)-3-(7,7-difluoro-2-((S)-2-methylazetidin-1-yl)-6,7-dihydro-5H-cyclopenta[d]pyrimidin-4-yl)-3-azabicyclo[3.1.0]hexan-6-yl)-1-(piperazin-1-yl)ethan-1-one]
10 to 100 | C[C@H]1CCN1c1nc(-c2ccc(OCC(=O)N3CCNCC3)c(F)c2)c2c(n1)C(F)(F)CC2 [Example 33]
≤ 10 | C[C@H]1CCN1c1nc(-c2ccc(OCC(=O)N3CCNCC3)c(Cl)c2)c2c(n1)C(F)(F)CC2 [Example 35]
10 to 100 | C[C@H]1CCN1c1nc(N2C[C@@H](OCC(=O)N3CCNCC3)[C@@H]2C)c2c(n1)C(F)(F)CC2 [Example 5, 2-(((2S,3R)-1-(7,7-difluoro-2-((S)-2-methylazetidin-1-yl)-6,7-dihydro-5H-cyclopenta[d]pyrimidin-4-yl)-2-methylazetidin-3-yl)oxy)-1-(piperazin-1-yl)ethan-1-one]
10 to 100 | C[C@H]1CCN1c1nc(-c2ccc(OCC(=O)N3CCNCC3)cc2)c2c(n1)C(F)(F)CC2 [Example 32]
≤ 10 | C[C@H]1CCN1c1nc(N2CC[C@@H](OCC(=O)N3CCNCC3)C2)c2c(n1)C(F)(F)CC2 [Example 8, 2-(((R)-1-(7,7-difluoro-2-((S)-2-methylazetidin-1-yl)-6,7-dihydro-5H-cyclopenta[d]pyrimidin-4-yl)pyrrolidin-3-yl)oxy)-1-(piperazin-1-yl)ethan-1-one]
≤ 10 | C[C@H]1CCN1c1nc(N2CC[C@H](CC(=O)N3CCNCC3)C2)c2c(n1)C(F)(F)CC2 [Example 9]
≤ 10 | C[C@H]1CCN1c1nc(N2CC(OCC(=O)N3CCNCC3)C2)c(Cl)c(C(F)(F)F)n1 [Example 2, (S)-2-((1-(5-chloro-2-(2-methylazetidin-1-yl)-6-(trifluoromethyl)pyrimidin-4-yl)azetidin-3-yl)oxy)-1-(piperazin-1-yl)ethan-1-one]

Structure (SMILES) | Ki [nM]
C[C@H]1CCN1c1nc(-c2ccc(CC(=O)O)cc2)c2c(n1)C(F)(F)CC2 [Example 29] | 10 to 100
